Measurements published in patent US20080194654A1, “HYDROXY-SUBSTITUTED ARYL SULFAMIDE DERIVATIVES AND METHODS OF THEIR USE” (Wyeth, priority 2006, published 2008).

Biological target: hDAT (Homo sapiens, UniProt Q01959)
Test: Dopamine transporter (hDAT) membrane binding assay

hDAT, sequence (Q01959 whole entry): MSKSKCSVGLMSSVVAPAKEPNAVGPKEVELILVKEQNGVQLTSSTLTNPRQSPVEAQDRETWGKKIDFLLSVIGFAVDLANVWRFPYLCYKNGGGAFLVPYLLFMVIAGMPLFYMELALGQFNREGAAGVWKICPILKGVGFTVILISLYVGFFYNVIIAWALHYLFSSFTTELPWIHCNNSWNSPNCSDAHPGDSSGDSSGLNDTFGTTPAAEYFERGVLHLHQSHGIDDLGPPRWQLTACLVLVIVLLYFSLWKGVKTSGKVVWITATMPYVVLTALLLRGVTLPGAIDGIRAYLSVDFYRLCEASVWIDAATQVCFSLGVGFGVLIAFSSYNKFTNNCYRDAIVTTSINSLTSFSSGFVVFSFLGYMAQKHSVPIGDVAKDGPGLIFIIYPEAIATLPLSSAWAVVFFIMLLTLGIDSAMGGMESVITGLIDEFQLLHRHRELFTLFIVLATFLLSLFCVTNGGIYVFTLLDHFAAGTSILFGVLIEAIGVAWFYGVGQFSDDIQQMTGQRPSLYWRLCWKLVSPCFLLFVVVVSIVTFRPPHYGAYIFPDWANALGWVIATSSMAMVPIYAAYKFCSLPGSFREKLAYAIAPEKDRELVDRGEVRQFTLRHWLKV

- IC50: > 1 µM
Structure (SMILES): CCNC[C@@H](O)CCN1c2ccccc2N(c2ccccc2F)S1(=O)=O
